In PMC5989455, “Beta-defensin derived cationic antimicrobial peptides with potent killing activity against gram negative and gram positive bacteria” (BMC Microbiology, 2018):
Bridges are numbered along the chain shown (N, C = ends). Where no end group is shown, it is not given here.

Tests used:
S. aureus (ATCC 29213) = type: cell-based, Staphylococcus aureus; settings: ATCC 29213, 24 h
Experimental: (§1) Pseudomonas aeruginosa (P. aeruginosa, ATCC 27853) and Staphylococcus aureus (S. aureus, ATCC 29213) were used to evaluate the novel CAMPs’ antimicrobial activity, salt- and protease-resistance, and membrane permeability. Ten multiple-drug resistant P. aeruginosa and ten methicillin-resistant S. pseudintermedius (MRSP) clinical isolates (Table 2) were used to evaluate the antimicrobial efficacy of CAMPs. The clinical isolates were cultured from diagnostic specimens by the microbiology staff at the University of Missouri Veterinary Medical Diagnostic Laboratory as part of standard service. The isolates were donated to the present project with appropriate permission. All bacterial strains were maintained and grown in Luria-Bertani broth or agar (LB, BD Difco™) at 37 °C as described previously.
(§2) Minimum inhibitory concentrations (MICs) were determined primarily based on the guidelines of the Clinical and Laboratory Standards Institute (CLSI). The Muller Hinton (MH) II broth used in MIC assay contained 20–25 mg/L of calcium and 10–12.5 mg/L of magnesium. The procedures were described in previous studies. In brief, two-fold serially diluted CAMPs (2 to 256 μg/ml) were mixed with appropriate bacterial strains at a final concentration of 5 × 10^5 CFU/ml in a 96-well microtiter plate (Nunc™, Thermo Fisher Scientific). Following incubation at 37 °C for 24 h, MIC was recorded. All assays were conducted in triplicate.

mouse red blood cells = type: cell-based
Experimental: The hemolytic assay was performed as described previously. Briefly, mouse red blood cells (RBCs, Innovative Research, Novi, MI) were washed three times with phosphate-buffered saline (PBS, pH 7.4), centrifuged at 1000×g for 10 min, and resuspended in PBS to 10% (v/v). The RBCs were treated with CAMPs at various concentrations ranging from 4 to 512 μg/ml (2-fold serial dilutions) at 37 °C for 1 h. PBS and 0.2% Triton X-100 were used as negative and positive controls, respectively. The supernatant was transferred to a 96-well flat-bottomed polystyrene plate (Thermo Fisher Scientific), and the amount of hemoglobin released into the supernatant was determined by measuring the absorbance with a spectrophotometer at 540 nm. Hemolytic activity was expressed as the percentage of hemolysis and calculated using the following equation: hemolysis (%) = (As-A0)/(A100-A0) × 100, where As is the absorbance of the sample, A100 is the absorbance of completely lysed RBCs in 0.2% Triton X-100, and A0 is the absorbance in the complete absence of hemolysis (PBS treatment). The assay was performed in triplicate. The therapeutic index (T.I.) was calculated according to a previously published formula: T.I. = MHC / MICGM [30]. […] The MICGM was the minimum inhibitory concentration of the peptide concentrations against bacterial growth after the geometric mean was calculated. […]

P. aeruginosa = type: cell-based, Pseudomonas aeruginosa
Experimental: as §1
as §2, with “All assays were conducted in triplicate.” left out

[1] = tested on: Gram-positive bacteria (S. aureus, S. pseudintermedius); experiment: Average MIC for Gram-positive bacteria; type: cell-based, Staphylococcus spp.; settings: average over S. aureus ATCC 29213 and 10 MRSP strains (Gram-positive), ± SD
Experimental: as §2
The hemolytic assay was performed as described previously. […] The supernatant was transferred to a 96-well flat-bottomed polystyrene plate (Thermo Fisher Scientific), and the amount of hemoglobin released into the supernatant was determined by measuring the absorbance with a spectrophotometer at 540 nm. Hemolytic activity was expressed as the percentage of hemolysis and calculated using the following equation: hemolysis (%) = (As-A0)/(A100-A0) × 100, where As is the absorbance of the sample, A100 is the absorbance of completely lysed RBCs in 0.2% Triton X-100, and A0 is the absorbance in the complete absence of hemolysis (PBS treatment). […] The therapeutic index (T.I.) was calculated according to a previously published formula: T.I. = MHC / MICGM [30]. […]

| Substance | MIC (S. aureus (ATCC 29213)) [µg/mL] | also measured |
| --- | --- | --- |
| Ac-LRRLKPLIRPWLRPLRRWWW-NH2 [CAMP-A] | 32 | concentration exhibiting hemolytic and cytotoxic activities (mouse red blood cells): ≥ 128 µg/mL |
| Ac-PIHRRIPPRWPRLKRRW-NH2 [CAMP-t2] | 64 |  |
| Ac-RKFLRRRGEVAHFSQKSLGLYCWWW-NH2 [CAMP-t1] | 64 |  |
| Ac-RRRWRKRRWWW-NH2 [CAMP-B] | 32 |  |
| SPIHACRYQRGVCIPGPCRWPYYRVGSCGSGLKSCCVRNRWA (disulfide 6-35, 13-28, 18-36 (inferred)) [AvBD-6, reference compound] |  | MIC (P. aeruginosa; 24 h): > 256 µg/mL; MICAverage G- (P. aeruginosa; average over 11 P. aeruginosa strains (Gram-negative), ± SD): > 256 µg/mL; MICAverage G+ [1]: ≥256 µg/mL |
